Earlier results on one compound are cited in patent US8288412B2, “Compounds which have activity at M1 receptor and their uses in medicine” (Glaxo Group Limited, priority 2005, dated 2012).

For series [1] the following is noted: rats.
For series [2] the following is noted: mice.
The conditions of series [3]: unilateral 6-OH-DA lesioned rats.
For series [4] the following is noted: monkeys.

Structures are written as SMILES.

In the case of `CCCCCCOc1nsnc1C1=CCCN(C)C1` [xanomeline], the amphetamine induced locomotion entry in series [1] is “reverses”. The apomorphine induced climbing entry in series [2] was “reverses”. The “dopamine agonist driven turning” value in series [3] is reported as “reverses”. Moreover, in series [4], the amphetamine-induced motor unrest result is on record as “reverses”. Moreover, where the note is “Alzheimer's patients”, the “psychotic symptoms such as suspiciousness, hallucinations and delusions” value is given as “reduce psychotic symptoms”. The side effects result (patients) is on record as “dose-limiting peripheral cholinergic side effects”.
